Test results taken from the supplement of paper PMC10307832.

Columns and labels:
Test in all cases: relative viability (nuclei count vs DMSO), 5 days (fraction); higher = more cells survive
[1] = tested on: NCI-H1437
Outline: (§1)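 A single step with final 0.05% Triton X-100, 1% formaldehyde and 1 ug/ml Hoechst fixed the cells and stained nuclei 5 days after treatment. Lung cancer cell lines in 1536-well plates had been treated by pin tool the day after seeding with one drug alone or a fixed anchor-drug dose plus five library-drug doses (not always all listed) in √10 steps, and nuclei were counted on 4× images. Relative viability is the ratio of nuclei in treated wells to nuclei in vehicle wells, taken as the median of duplicate plates.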

[2] = tested on: HCC-366
Outline: as §1

[3] = tested on: H3255
Outline: as §1

[4] = tested on: LC-2-ad
Outline: as §1

[5] = tested on: PC-14
Outline: as §1

[6] = tested on: NCI-H661
Outline: as §1

[7] = tested on: NCI-H1666
Outline: as §1

[8] = tested on: NCI-H2087
Outline: as §1

[9] = tested on: HCC-15
Outline: as §1

[10] = tested on: ABC-1
Outline: as §1

[11] = tested on: LXF-289
Outline: as §1

CCNC(=O)c1noc(-c2cc(C(C)C)c(O)cc2O)c1-c1ccc(CN2CCOCC2)cc1 [Luminespib] + CC(C)C[C@H](NC(=O)[C@H](Cc1ccccc1)NC(=O)c1cnccn1)B(O)O [Bortezomib] (partner 0.002 µM)
relative viability ([1]; first compound 0.002 µM): 0.511 | relative viability ([1]; first compound 0.006325 µM): 0.38 | relative viability ([1]; first compound 0.02 µM): 0.431 | relative viability ([1]; first compound 0.06325 µM): 0.247 | relative viability ([1]; first compound 0.2 µM): 0.0895 | relative viability ([2]; first compound 0.002 µM): 1.01 | relative viability ([2]; first compound 0.006325 µM): 1.01 | relative viability ([2]; first compound 0.02 µM): 0.474 | relative viability ([2]; first compound 0.06325 µM): 0.025 | relative viability ([2]; first compound 0.2 µM): 0.0174 | relative viability ([3]; first compound 0.002 µM): 0.615 | relative viability ([3]; first compound 0.006325 µM): 0.466 | relative viability ([3]; first compound 0.02 µM): 0.472 | relative viability ([3]; first compound 0.06325 µM): 0.376 | relative viability ([3]; first compound 0.2 µM): 0.194 | relative viability ([4]; first compound 0.002 µM): 0.733 | relative viability ([4]; first compound 0.006325 µM): 1.02 | relative viability ([4]; first compound 0.02 µM): 1.1 | relative viability ([4]; first compound 0.06325 µM): 0.133 | relative viability ([4]; first compound 0.2 µM): 0.0947 | relative viability ([5]; first compound 0.002 µM): 0.956 | relative viability ([5]; first compound 0.006325 µM): 0.788 | relative viability ([5]; first compound 0.02 µM): 0.988 | relative viability ([5]; first compound 0.06325 µM): 0.314 | relative viability ([5]; first compound 0.2 µM): 0.0725 | relative viability ([6]; first compound 0.002 µM): 0.886 | relative viability ([6]; first compound 0.006325 µM): 0.773 | relative viability ([6]; first compound 0.02 µM): 0.685 | relative viability ([6]; first compound 0.06325 µM): 0.527 | relative viability ([6]; first compound 0.2 µM): 0.182 | relative viability ([7]; first compound 0.002 µM): 0.871 | relative viability ([7]; first compound 0.006325 µM): 0.86 | relative viability ([7]; first compound 0.02 µM): 0.74 | relative viability ([7]; first compound 0.06325 µM): 0.725 | relative viability ([7]; first compound 0.2 µM): 0.74 | relative viability ([8]; first compound 0.002 µM): 1.03 | relative viability ([8]; first compound 0.006325 µM): 0.676 | relative viability ([8]; first compound 0.02 µM): 0.796 | relative viability ([8]; first compound 0.06325 µM): 0.141 | relative viability ([8]; first compound 0.2 µM): 0.142 | relative viability ([9]; first compound 0.002 µM): 1.03 | relative viability ([9]; first compound 0.006325 µM): 0.906 | relative viability ([9]; first compound 0.02 µM): 1.11 | relative viability ([9]; first compound 0.06325 µM): 0.517 | relative viability ([9]; first compound 0.2 µM): 0.152 | relative viability ([10]; first compound 0.002 µM): 0.258 | relative viability ([10]; first compound 0.006325 µM): 0.315 | relative viability ([10]; first compound 0.02 µM): 0.238 | relative viability ([10]; first compound 0.06325 µM): 0.267 | relative viability ([10]; first compound 0.2 µM): 0.255 | relative viability ([11]; first compound 0.002 µM): 0.969 | relative viability ([11]; first compound 0.006325 µM): 0.951
